Measured values from ChEMBL document CHEMBL1128832, “Substituted alkylpyridines as P3 ligands for the hydroxyethylpiperazine class of HIV-1 protease inhibitors: Improved pharmacokinetic profiles” (Bioorg Med Chem Lett, 1995).

How the values were obtained:
[1] = Area under curve was determined in dogs after oral administration (10 mg/kg) as a 0.05 M citric acid solution.; type: ADME, organism-based, Canis lupus familiaris; details: dog, in vivo
[2] = Half life to reach the blood concentration was determined in dogs after oral administration (10 mg/kg) as a 0.05 M citric acid solution.; type: ADME, organism-based, Canis lupus familiaris; details: dog
MT4 = test: Antiviral activity in MT-4 human lymphoid cells infected with IIIB isolate by viral spread assay; type: functional; details: read-out: CIC95
[3] = Maximum plasma concentration in dogs after oral administration (10 mg/kg) as a 0.05 M citric acid solution.; type: ADME, organism-based, Canis lupus familiaris; set-up: dose 10 mg/kg, route oral; details: dog
[4] = Maximum time taken to reach maximum blood concentration was determined in dogs after oral administration (10 mg/kg) as a 0.05 M citric acid solution.; type: ADME, organism-based, Canis lupus familiaris; details: dog
[5] = target: Human immunodeficiency virus type 1 protease (Human immunodeficiency virus 1, UniProt Q72874); test: In vitro inhibitory activity against HIV-1 protease enzyme.
[6] = Maximum time taken to reach maximum blood concentration was determined in dogs after oral administration (8 mg/kg) as a 0.05 M citric acid solution.; type: ADME, organism-based, Canis lupus familiaris; details: dog
[7] = Area under curve was determined in dogs after oral administration (8 mg/kg) as a 0.05 M citric acid solution.; type: ADME, organism-based, Canis lupus familiaris; details: dog, in vivo
[8] = Maximum plasma concentration in dogs after oral administration (8 mg/kg) as a 0.05 M citric acid solution.; type: ADME, organism-based, Canis lupus familiaris; set-up: dose 8 mg/kg, route oral; details: dog
[9] = Half life to reach the blood concentration was determined in dogs after oral administration (8 mg/kg) as a 0.05 M citric acid solution.; type: ADME, organism-based, Canis lupus familiaris; details: dog

Structure (SMILES) | AUC [1] [µM·h] | half-life [2] [min] | Cmax [3] [µM] | Tmax [4] [min] | Tmax [6] [min] | AUC [7] [µM·h] | Cmax [8] [µM] | half-life [9] [min] | IC95 (MT4) [nM] | IC50 [5] [nM]
CC(C)c1cc(CN2CCN(C[C@@H](O)[C@H](Cc3ccccc3)NC(=O)O[C@@H]3CCS(=O)(=O)[C@@H]3C(C)C)[C@H](C(=O)NC(C)(C)C)C2)cc(C(C)C)n1 | – | – | – | – | – | – | – | – | 50 | –
CC(C)c1cc(CN2CCN(C[C@@H](O)[C@H](Cc3ccccc3)NC(=O)O[C@@H]3CCS(=O)(=O)[C@@H]3C(C)C)[C@H](C(=O)NC(C)(C)C)C2)ccn1 | – | – | – | – | – | – | – | – | 67 | –
CCc1cc(CN2CCN(C[C@@H](O)[C@H](Cc3ccccc3)NC(=O)O[C@@H]3CCS(=O)(=O)[C@@H]3C(C)C)[C@H](C(=O)NC(C)(C)C)C2)cc(CC)n1 | 2.9 | 36 | 3 | 25 | – | – | – | – | 42 | –
CCC(C)c1cc(CN2CCN(C[C@@H](O)[C@H](Cc3ccccc3)NC(=O)O[C@@H]3CCS(=O)(=O)[C@@H]3C(C)C)[C@H](C(=O)NC(C)(C)C)C2)ccn1 (stereo not given in full) | – | – | – | – | – | – | – | – | 25 | 1.2
CCCc1cc(CN2CCN(C[C@@H](O)[C@H](Cc3ccccc3)NC(=O)O[C@@H]3CCS(=O)(=O)[C@@H]3C(C)C)[C@H](C(=O)NC(C)(C)C)C2)ccn1 | – | – | – | – | 25 | 1.5 | 2.3 | 21 | 12 | –
CCCCc1cc(CN2CCN(C[C@@H](O)[C@H](Cc3ccccc3)NC(=O)O[C@@H]3CCS(=O)(=O)[C@@H]3C(C)C)[C@H](C(=O)NC(C)(C)C)C2)cc(CCCC)n1 | – | – | – | – | – | – | – | – | 25 | –

Second part, led by results:

AUC [1] [µM·h] | half-life [2] [min] | Cmax [3] [µM] | Tmax [4] [min] | Tmax [6] [min] | AUC [7] [µM·h] | Cmax [8] [µM] | half-life [9] [min] | Structure (SMILES) | IC95 (MT4) [nM] | IC50 [5] [nM]
4.3 | 24 | 6.7 | 25 | – | – | – | – | CC(C)[C@@H]1[C@H](OC(=O)N[C@@H](Cc2ccccc2)[C@H](O)CN2CCN(Cc3ccncc3)C[C@H]2C(=O)NC(C)(C)C)CCS1(=O)=O | 200 | –
7.4 | 121 | 8.6 | 10 | – | – | – | – | Cc1cc(CN2CCN(C[C@@H](O)[C@H](Cc3ccccc3)NC(=O)O[C@@H]3CCS(=O)(=O)[C@@H]3C(C)C)[C@H](C(=O)NC(C)(C)C)C2)ccn1 | 75 | –
5.4 | 91 | 4.1 | 20 | – | – | – | – | CCc1cc(CN2CCN(C[C@@H](O)[C@H](Cc3ccccc3)NC(=O)O[C@@H]3CCS(=O)(=O)[C@@H]3C(C)C)[C@H](C(=O)NC(C)(C)C)C2)ccn1 | 81 | –
– | – | – | – | 40 | 4.5 | 3.6 | 28 | Cc1cc(CN2CCN(C[C@@H](O)[C@H](Cc3ccccc3)NC(=O)O[C@@H]3CCS(=O)(=O)[C@@H]3C(C)C)[C@H](C(=O)NC(C)(C)C)C2)cc(C)n1 | 50 | –
